# In US20260256923A1, “NEW RECRUITMENT ELEMENT OF UBIQUITIN LIGASE AND USE THEREOF” (SHENZHEN LINGGENE BIOTECH CO., LTD., priority 2023, published 2026):
# Tests used:
# [1] = molecular target: T1, STAT3 (Homo sapiens, UniProt P40763); assay: STAT3 protein degradation in HeLa cells, western blot; assay type: cell-based; set-up: endogenous in cells; host or cells: HeLa; details: 500 nM, 6 h
# Protocol: HeLa cells were incubated with 500 nM said first PROTAC product 1411-S3-1 or second PROTAC product 1411-S3-2, and corresponding cell samples were collected at time gradients of 0 h, 2 h, 6 h, 12 h, 18 h, and 24 h for protein extraction and subsequent western blot assay.
# HeLa cells were incubated with the first PROTAC product 1411-S3-1 or the second PROTAC product 1411-S3-2 at concentrations of 0 nM, 100 nM, 200 nM, 500 nM, and 1000 nM. After 6 h, cell samples were collected for protein extraction and subsequent western blot assay. […] The half-maximal degradation concentrations (DC50) of the first PROTAC product 1411-S3-1 and the second PROTAC product 1411-S3-2 against STAT3 at the protein level were 262.5 nM and 136.3 nM, respectively, as shown in FIG. 19.
# (§1) HeLa cells were incubated with 500 nM double-stranded transcription factor decoy oligonucleotide S3, AS1411, the first PROTAC product 1411-S3-1, the second PROTAC product 1411-S3-2, or AS1411+double-stranded transcription factor decoy oligonucleotide S3. After 6 h, cell samples were collected for protein extraction and subsequent western blot assay.
# HeLa cells were incubated with 500 nM said first PROTAC product 1411-S3-1 or second PROTAC product 1411-S3-2, and proteasome inhibitor MG132 was added. After 6 h, cell samples were collected for protein extraction and subsequent western blot assay. […]
# [2] = molecular target: T1, STAT3; assay: STAT3 protein degradation in HOS osteosarcoma cells, western blot; assay type: cell-based; set-up: endogenous in cells; details: 500 nM, 6 h
# Protocol: as §1, with “HOS osteosarcoma” for “HeLa”
# [3] = system: metastatic castration-resistant prostate cancer; details: patients carrying AR T878X and/or H875Y mutations; cited from earlier work
# T1 sequence (P40763 whole entry): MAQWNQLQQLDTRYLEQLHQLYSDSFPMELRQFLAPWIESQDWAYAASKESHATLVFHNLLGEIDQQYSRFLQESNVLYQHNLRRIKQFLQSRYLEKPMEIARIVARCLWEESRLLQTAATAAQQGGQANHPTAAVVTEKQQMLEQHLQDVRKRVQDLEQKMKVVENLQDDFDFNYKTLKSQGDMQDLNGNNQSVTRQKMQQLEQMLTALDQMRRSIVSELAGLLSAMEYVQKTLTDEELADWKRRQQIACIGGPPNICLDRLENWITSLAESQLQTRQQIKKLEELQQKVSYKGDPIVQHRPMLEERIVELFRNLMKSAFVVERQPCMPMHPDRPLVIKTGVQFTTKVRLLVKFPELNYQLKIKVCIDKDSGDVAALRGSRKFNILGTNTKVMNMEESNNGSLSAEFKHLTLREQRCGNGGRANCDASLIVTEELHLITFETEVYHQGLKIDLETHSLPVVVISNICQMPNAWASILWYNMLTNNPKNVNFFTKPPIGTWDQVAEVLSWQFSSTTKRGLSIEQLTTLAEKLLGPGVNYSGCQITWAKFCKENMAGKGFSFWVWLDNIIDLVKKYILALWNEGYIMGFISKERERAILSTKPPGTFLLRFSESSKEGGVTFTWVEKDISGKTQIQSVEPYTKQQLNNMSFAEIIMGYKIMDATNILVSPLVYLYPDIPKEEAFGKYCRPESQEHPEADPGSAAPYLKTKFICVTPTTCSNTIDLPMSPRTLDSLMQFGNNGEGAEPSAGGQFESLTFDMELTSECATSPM
Molecule,protein level of STAT3 [1],protein level of STAT3 [2],antitumor activity and clinical benefit [3]
"S3: double-stranded transcription factor decoy oligonucleotide that specifically recognizes STAT3; strands SEQ ID NO: 5 and 6 (chain 1 CTTCTGGGAAA; chain 2 TTTCCCAGAAG; DNA, backbone and methylation of C not given here; double-stranded decoy)",only the first PROTAC product 1411-S3-1 and the second PROTAC product 1411-S3-2 can reduce the protein level of transcription factor STAT3,only the first PROTAC product 1411-S3-1 and the second PROTAC product 1411-S3-2 can reduce the protein level of transcription factor STAT3,–
"N#Cc1ccc(O[C@H]2CC[C@H](NC(=O)c3ccc(N4CCC(CN5CCN(c6cc7c(cc6F)C(=O)N(C6CCC(=O)NC6=O)C7=O)CC5)CC4)nn3)CC2)cc1Cl (stereo partly drawn) [ARV-110, Bavdegalutamide]",–,–,exhibits potent antitumor activity and clinical benefit
